Source: paper PMC4116524, “A virtual screen identified C96 as a novel inhibitor of phosphatidylinositol 3-kinase that displays potent preclinical activity against multiple myeloma in vitro and in vivo” (Oncotarget, 2014)

Experiments:
[1] = system: AKT phosphorylation in LP1 and JJN3 cells; assay: IGF-1-stimulated AKT phosphorylation, immunoblotting (Figure 3A); format: cell-based; conditions: 100 μM, 2 hrs, IGF-1 15 min
Method: (§1) To elucidate this specificity, we first evaluated its effects on IGF-1R because IGF-1R as a receptor tyrosine kinase activates PI3K in the presence of IGF-1. To exclude the potential effects of C96 on IGF-1 signaling, LP1 and JJN3 cells were starved overnight followed by C96 or S14161 treatment for 2 hrs, and IGF-1 stimulation for 15 min. As expected, IGF-1 triggered AKT phosphorylation but it was suppressed by both C96 and the proven PI3K inhibitor S14161 without affecting total AKT expression (Figure 3A). […] Next, we evaluated other kinases including non-receptor kinase c-Src and a PI3K parallel kinase ERK which transduces external cellular signals. Both LP1 and JJN3 cells were treated with C96 at increasing concentrations that inhibited AKT and mTOR activation (Figure 2C).
(§2) Figure 3 C96 inhibits AKT but not IGF-1R, ERK or c-Src kinase activation (A) LP1 and JJN3 cells were starved overnight, then treated with 100 (μM of C96 or S14161 for 2 hrs, followed by IGF-1 (100 ng/mL) for 15 min. After incubation, cells were harvested and the expression of p-AKT, p-IGF-1R, total AKT (T-AKT), and IGF-1R proteins were detected by immunoblotting. (B) LP1 and JJN3 were treated with C96 at indicated concentrations for 24 hrs followed by immunoblotting assay for the expression of p-Src, c-Src, p-ERK, and ERK. GAPDH was used as a loading control. […]

[2] = system: AKT phosphorylation in OPM2 cells; assay: IGF-1-stimulated AKT phosphorylation, immunoblotting; format: cell-based; conditions: OPM2 cells (no PTEN), 2 hrs, IGF-1 15 min
Method: (§3) MM cell lines LP1 and OPM2 were starved overnight before being treated with C96 (0–100 μM) or S14161 (100 μM, a positive control) for a short period (2 hrs), followed by IGF-1 stimulation for 15 min. […] (Figure 2A). In LP1 cells, C96 at 25 μM and 50 μM led to a 50% and 90% decrease in AKT phosphorylation, respectively, in the 2-hr treatment. […] In the time-course study, AKT activation was suppressed by C96 at 50 μM within 0.5 hrs (30 min) (Figure 2B).
(§4) Figure 2 C96 inhibits AKT and mTOR signaling (A) LP1 and OPM2 were starved overnight, then treated with C96 at the indicated concentrations, or 100 μM of S14161 for 2 hrs, followed by IGF-1 (100 ng/mL) for 15 min. Cells were collected for the analysis of the expression of p-AKT and total AKT (T-AKT) by immunoblotting. (B) LP1 and OPM2 cells were starved overnight, then treated with C96 (50 μM) for different time periods, or S14161 (100 (μM) for 2 hrs, followed by IGF-1 (100 ng/mL) for 15 min. Cells were for the analysis of the expression of p-AKT and T-AKT by immunoblotting. (C) LP1, OPM2, and JJN3 cells were treated with C96 at the indicated concentrations for 24 hrs. Cell lysates were prepared and subjected to immunoblotting assay against p-AKT, AKT, p-mTOR, mTOR, p-4E-BP1, and 4E-BP1. GAPDH was used as a loading control.
(§5) Cells were treated with or without C96 for 24 hrs before being applied to lysate preparation in a lysis buffer (50 mM Tris-HCI, pH 7.4, 1% NP-40, 0.5% Na-deoxycholate, and 0.1% SDS, 150 mM NaCl, 2 mM EDTA, 2 mM Na3VO4, and 5 mM NaF). Equal amounts (30 μg) of total proteins were subjected to sodium dodecyl sulfate–polyacrylamide gel electrophoresis (SDS-PAGE) separation, followed by immunoblotting analyses with specific antibodies. Antibodies against PARP, caspase-3, AKT, p-AKT(S473), 4E-BP1, p-4E-BP1(S65), IGF-1R, p-IGF-1R, ERK(p42/p44), and p-ERK(p42/p44) were purchased from Cell Signaling Technologies. Antibodies against mTOR, p-mTOR(S2448), p70S6K, p-p70S6K(S424), and GAPDH were obtained from Abgent (Suzhou, China). Horseradish peroxidase-conjugate secondary antibodies against mouse or rabbit and GAPDH were purchased from Abgent. All immunoblotting signals were further analyzed with Quality One Quality One software (Bio-Rad, Berkeley, CA, USA).

[3] = system: AKT phosphorylation in LP1 cells; assay: as above; format: cell-based; conditions: for decrease in AKT phosphorylation: LP1 cells, 2-hr treatment, IGF-1 15 min
Method: as §3, §4, §5

[4] = system: phosphorylation of mTOR, p70S6K and 4E-BP1 in LP1, OPM2 and JJN3 cells; assay: mTOR signaling pathway, immunoblotting; format: cell-based; conditions: LP1, OPM2, JJN3, 24 hrs, concentration-dependent
Method: Figure 2 C96 inhibits AKT and mTOR signaling (A) LP1 and OPM2 were starved overnight, then treated with C96 at the indicated concentrations, or 100 μM of S14161 for 2 hrs, followed by IGF-1 (100 ng/mL) for 15 min. Cells were collected for the analysis of the expression of p-AKT and total AKT (T-AKT) by immunoblotting. […]
The PI3K/AKT plays a critical role in regulating a myriad of downstream effectors, of which the most prominent ones are mTOR/p70S6K/4E-BP1. […] To examine whether PI3K inhibition led to deregulation of the mTOR signaling pathway, we further measured the changes of mTOR, p70S6K and 4E-BP1 in MM cell lines LP1, OPM2, and JJN3 in the presence of C96.
Cells were treated with or without C96 for 24 hrs before being applied to lysate preparation in a lysis buffer (50 mM Tris-HCI, pH 7.4, 1% NP-40, 0.5% Na-deoxycholate, and 0.1% SDS, 150 mM NaCl, 2 mM EDTA, 2 mM Na3VO4, and 5 mM NaF). […] All immunoblotting signals were further analyzed with Quality One Quality One software (Bio-Rad, Berkeley, CA, USA).

[5] = system: c-Src phosphorylation in LP1 and JJN3 cells; assay: c-Src phosphorylation, immunoblotting; format: cell-based; conditions: increasing concentrations, 24 hrs
Method: as §1, §2

O=C1NC(=O)C(=CC=Cc2cccs2)C(=O)N1 [C96, 5-(3-(2-thienyl)-2-propen-1-ylidene)-2,4,6(1H,3H,5H)-pyrimidinetrione]
AKT phosphorylation triggered by IGF-1 [1]: suppressed | AKT phosphorylation [2]: markedly decreased | time within which AKT activation was suppressed ([3]; 50 μM, time-course study, LP1 and OPM2 (Figure 2B)): ≤ 0.5 h | decrease in AKT phosphorylation ([3]; 25 μM): 50% | decrease in AKT phosphorylation ([3]; 50 μM): 90% | phosphorylation levels of mTOR, p70S6K and 4E-BP1 [4]: downregulated | 100 mg/kg body weight dose as fraction of the oral LD50 (Oral LD50): 1/10 | phosphorylation level of c-Src [5]: did not decrease
